Measured values reported in patent US20250144067A1, “PERSONALIZED STARVATION THERAPY FOR CANCER” (Faeth Therapeutics, Inc., priority 2021, published 2025).
Where a name gives a salt, the structure may show the parent alone.

Assays:
SW480 cells = experiment: Drug validation, four media conditions; format: cell-based, human; details: cholesterol-free medium+simvastatin compared to the other media conditions
Protocol: (§1) A series of experiments were designed to assess the effect of cholesterol depletion and statin treatment on the anti-cancer effect of drugs identified in the FDA drug screens. Cancer cells were grown in media containing cholesterol and cholesterol-free media in the presence or absence of simvastatin. The effect of the drug identified in the FDA drug screens on cancer cell growth was measured.
(§2) […]. Medium 1 was ‘complete medium’ containing all essential nutrients, including cholesterol. Medium 2 was cholesterol-free medium. Medium 3 was cholesterol-free medium supplemented with simvastatin 40 nM. Medium 4 was ‘complete medium’ containing all essential nutrients, including cholesterol, supplemented with simvastatin at the IC30 concentration for each cell line.
(§3) On Day 5, cell growth was measured by absorbance or fluorescence. For absorbance growth measurements, spent media was discarded, and wells were stained with a crystal violet staining solution, washed, and dried. 100 μL of 10% acetic acid was added to each well to release the crystal violet taken up by the cells. Plates were read using a Biotek Powerwave plate reader to determine the absorbance of the crystal violet released as an indicator of cell growth at a wavelength of 595 nm. For fluorescence growth measurements, 100 μL of a resazurin solution was added to each well and the plate incubated at 37° C. for four hours. Plates were read using a Biotek Powerwave plate reader to determine the fluorescence of reosurfin as an indicator of cell growth at a wavelength of 590 nm.
(§4) Growth curves showing absorbance of crystal violet at 595 nm or fluorescene of reosurfin at 590 nm were plotted from test wells against the logarithmic concentration of the validation drug. FIG. 9A-9C show growth of cancer cell lines in the four media conditions subjected to increasing doses of neticonazole. FIG. 10A-10D show growth of cancer cell lines in the four media conditions subjected to increasing doses of cepharanthine. FIG. 11A-11B show growth of cancer cell lines in the four media conditions subjected to increasing doses of alverine citrate. FIG. 12A-12B show growth of cancer cell lines in the four media conditions subjected to increasing doses of berbamine. FIG. 13A-13C show growth of cancer cell lines in the four media conditions subjected to increasing doses of pitolisant. FIG. 14A-14G show growth of cancer cell lines in the four media conditions subjected to increasing doses of avapritinib. FIG. 15A-15D show growth of cancer cell lines in the four media conditions subjected to increasing doses of toremifene. FIG. 16A-16C show growth of cancer cell lines in the four media conditions subjected to increasing doses of isavuconazole.

H292 cells [1] = experiment: Drug validation, four media conditions; format: cell-based, human; details: cholesterol-free medium+simvastatin compared to the other media conditions
Protocol: as §1, §2, §3, §4

SW480 colorectal tumour = experiment: Anti-tumour activity with low cholesterol diet in SW480 tumour bearing mice; format: in vivo, M-NSG mice
Excerpt: (§5) A series of in vivo experiments were designed to assess the effect of cholesterol depletion on cancer cell growth. The added role of statin treatment and additional therapeutic agents was studied by dosing mice and assessing tumor growth over a defined time period.
Immunodeficient M-NSG (NOD-Prkdc^scid Il2rgem1Smoc) mice were subcutaneously injected with human colorectal cancer SW480 cells and matrigel to initiate tumor development and randomly assigned into one of four experimental groups (n=6 per group): normal cholesterol diet “Normal Chol Diet” containing 0.2% dietary cholesterol and vehicle, low cholesterol diet “Low Chol Diet” containing less than 0.05% dietary cholesterol and vehicle, Low Chol Diet treated with atorvastatin at 15 mg/kg, or Low Chol Diet treated with toremifene at 2 mg/kg. Once the tumor volume reached ˜150 mm^3, experimental diets were commenced. Atorvastatin, vehicle, or toremifene treatment by oral gavage was initiated four days after the diet change and continued daily until the tumor volume exceeded 2000 mm^3 or the time end-point of three weeks after treatment initiation was reached. Throughout the course of the study, tumor volume was measured twice per week.

cancer cell lines = experiment: Drug validation in multiple cancer cell lines, four media conditions; format: cell-based, human
Protocol: as §1
[…]. Medium 1 was ‘complete medium’ containing all essential nutrients, including cholesterol. Medium 2 was cholesterol-free medium. Medium 3 was cholesterol-free medium supplemented with simvastatin 40 nM. […]
as §3, with “and dried. […] Plates were” for “and dried. 100 μL of 10% acetic acid was added to each well to release the crystal violet taken up by the cells. Plates were”, “590 nm. […]” for “590 nm.”

H292 cells [2] = experiment: Drug validation in H292 cells, three media conditions; format: cell-based, human; details: cholesterol-free medium + simvastatin 40 nM vs complete and cholesterol-free medium
Protocol: as §1
On Day 1, cells were seeded at a density of around 7500 cells/well in a Corning 96-well flat bottom culture plate in complete media containing 10% FBS.
On Day 5, spent media was discarded, and wells were stained with a crystal violet staining solution, washed and dried. 100 μL of 10% acetic acid was added to each well to release the crystal violet taken up by the cells. Plates were read using a Biotek Powerwave plate reader to determine the absorbance of the crystal violet released as an indicator of cell growth at a wavelength of 595 nm.
Growth curves showing absorbance of crystal violet at 595 nm were plotted from test wells against the logarithmic concentration of the validation drug. FIG. 7A-7C show growth of cancer cell lines in the three media conditions subjected to increasing doses of isavuconazole (FIG. 7A), pitolisant (FIG. 7B), or toremifene (FIG. 7C) from the FDA screen under validation. For each of the drugs being validated, there is a strong ‘left-shift’ in the dose response curve for cells are grown in the cholesterol-free medium+simvastatin.

PC9 lung cancer tumors = experiment: Anti-tumour activity with low cholesterol diet in PC9 bearing mice; format: in vivo, C.B-17 SCID mice; details: Low Chol Diet + toremifene 2 mg/kg with simvastatin 10 mg/kg, daily oral gavage, compared to simvastatin 20 mg/kg
Excerpt: as §5
Immunodeficient C.B-17 SCID (C.B-Igh-1^b/IcrTac-Prkdc^scid) mice were subcutaneously injected with human lung cancer PC9 cells to initiate tumor development and randomly assigned into one of three experimental groups (n=6 per group): “Low Chol Diet” containing less than 0.05% dietary cholesterol and vehicle, Low Chol Diet and simvastatin 20 mg/kg, and Low Chol Diet and simvastatin 10 mg/kg in combination with toremifene 2 mg/kg. Once the tumor volume reached ˜200 mm^3, treatment was commenced with vehicle, simvastatin, and toremifene administered daily by oral gavage. Treatment continued for 28 days or until the tumor volume exceeded 2000 mm^3. Throughout the course of the study, tumor volume was measured twice per week.

[3] = tested on: NCI-H292 lung cancer cells; experiment: FDA drug screening, complete media vs cholesterol-free media with simvastatin (TABLE 2); format: cell-based, human; details: for Cholesterol-free media + simvastatin (0.04 μM) / Complete Media: NCI-H292 cells, FDA drug library screen; for Cholesterol-free media + simvastatin (0.04 μM): cholesterol-free media with simvastatin 0.04 μM; for Difference: complete media minus cholesterol-free media + simvastatin, >0 enhanced anti-cancer activity, about 0 neutral, <0 antagonist
[4] = tested on: NCI-H292 lung cancer cells; experiment: FDA drug screening, complete media vs cholesterol-free media without statin (TABLE 1); format: cell-based, human; details: for Difference: about 0 neutral; for Cholesterol-free / Complete: NCI-H292 cells; for Cholesterol-free: cholesterol-free media without statin; for Complete: complete media
[5] = tested on: NCI-H292 mucoepidermoid lung cancer tumour; experiment: Anti-tumour activity with low cholesterol diet in NCI-H292 tumour bearing mice; format: in vivo, BALB/c nude mice; details: Low Chol Diet + atorvastatin 30 mg/kg daily oral gavage vs Low Chol Diet + vehicle
Excerpt: as §5
Immunodeficient BALB/c nude mice were subcutaneously injected with human mucoepidermoid lung cancer NCI-H292 cells to initiate tumor development and randomly assigned into one of three experimental groups (n=6 per group): normal cholesterol diet “Normal Chol Diet” containing 0.2% dietary cholesterol without atorvastatin; low cholesterol diet “Low Chol Diet” containing less than 0.05% dietary cholesterol without atorvastatin; or Low Chol Diet treated with atorvastatin at 30 mg/kg by oral gavage. Once the tumor volume reached ˜150 mm^3, experimental diets were commenced. Atorvastatin or vehicle treatment was initiated four days after the diet change and continued daily until the tumor volume exceeded 2000 mm^3 or the time end-point of three weeks after diet commencement was reached. Throughout the course of the study, tumor volume was measured twice per week.

PSN1 cells = experiment: Drug validation, four media conditions; format: cell-based, human; details: cholesterol-free medium+simvastatin compared to the other media conditions
Protocol: as §1, §2, §3, §4

PATU8901 cells = experiment: Drug validation, four media conditions; format: cell-based, human; details: cholesterol-free media with simvastatin
Protocol: as §1, §2, §3, §4

`CCN(CCCc1ccccc1)CCCc1ccccc1` [alverine citrate] was tested, and the “anti-proliferative effect (dose-response curve shift)” value (SW480 cells) was “enhanced” and the “anti-proliferative effect (dose-response curve shift)” value (H292 cells [1]) was “enhanced”.

In the case of `CN(C)CCOc1ccc(/C(=C(/CCCl)c2ccccc2)c2ccccc2)cc1` [toremifene], the “tumor growth suppression, rank among the four conditions” value (SW480 colorectal tumour; Low Chol Diet + toremifene 2 mg/kg) is reported as “highest”, the tumor growth suppression (SW480 colorectal tumour; Low Chol Diet + toremifene 2 mg/kg daily oral gavage vs Low Chol Diet + vehicle) is reported as “enhanced” and the “anti-proliferative activity (dose-response curve shift)” value (cancer cell lines; cholesterol-free+simvastatin medium compared to the other three media conditions) is reported as “strong left-shift”. The “anti-proliferative effect of the drug (dose response curve shift)” value (H292 cells [2]) was “strongly enhanced” and the tumor growth suppression (PC9 lung cancer tumors) was “enhanced the tumor growth suppression”.

In the case of `CC(C)c1c(C(=O)Nc2ccccc2)c(-c2ccccc2)c(-c2ccc(F)cc2)n1CC[C@@H](O)C[C@@H](O)CC(=O)O` [atorvastatin, reference compound], the tumor growth suppression (SW480 colorectal tumour; Low Chol Diet + atorvastatin 15 mg/kg daily oral gavage vs Low Chol Diet + vehicle) is reported as “enhanced”, the “Cholesterol-free media + simvastatin (0.04 μM)” value ([3]; listed as Atorvastatin) is reported as 0.6169 and the “Complete Media” value ([3]; listed as Atorvastatin) is reported as 0.8658. The Difference ([3]; listed as Atorvastatin) was 0.25, the Difference ([4]; Complete minus Cholesterol-free, >0 enhanced anti-cancer activity, <0 antagonist) was 0.03 and the Cholesterol-free ([4]; FDA drug library screen) was 0.8356. For the same compound, the Complete ([4]; FDA drug library screen) was 0.8623 and the tumor growth suppression [5] was “enhanced the tumor growth suppression”.

`Cn1cc(-c2cc3c(N4CCN(c5ncc([C@@](C)(N)c6ccc(F)cc6)cn5)CC4)ncnn3c2)cn1` [avapritinib, reference compound] was tested, and the “anti-proliferative effect (dose-response curve shift) with lack of cholesterol” value (cancer cell lines; cholesterol-free media compared to complete media) was “enhanced”, the “Cholesterol-free media + simvastatin (0.04 μM)” value [3] was 0.4436 and the “Complete Media” value [3] was 0.749. The Difference [3] was 0.31, the “anti-proliferative effect (dose-response curve shift)” value (PSN1 cells) was “strong left-shift” and the “anti-proliferative effect (dose-response curve shift)” value (PATU8901 cells) was “strong left-shift”. For the same compound, the “anti-proliferative effect (dose-response curve shift)” value (H292 cells [1]) was “strong left-shift”, the Cholesterol-free [4] was 0.9337 and the Complete [4] was 0.6002. It also gave a Difference ([4]; complete vs cholesterol-free media, greater than 0 enhanced anti-cancer activity, below 0 antagonists) of −0.33.
